Experimental data: patent publication US20020052296A1, “Herbicidal synergistic combination of a dihydrobenzothiophene compound and a photosystem II inhibitor” (Intellectual Property Department, BASF Aktiengesellschaft, priority 2000, published 2002)

What was measured:
Settings in all cases: 18 days after treatment
[1] = tested on: AGRRE (Quackgrass); experiment: Greenhouse postemergence herbicidal evaluation, % weed control; type: in vivo, Elytrigia repens
Procedure: (§1) In the following examples, synergism for two-way combinations is determined by the Colby1 method, i.e. the expected (or predicted) response of the combination is calculated by taking the product of the observed response for each individual component of the combination when applied alone divided by 100 and subtracting this value from the sum of the observed response for each component when applied alone. Synergism of the combination is then determined by comparing the observed response of the combination to the expected (or predicted) response as calculated from the observed responses of each individual component alone. If the observed response of the combination is greater than the expected (or predicted) response then the combination is said to be synergistic and falls within the definition of synergistic effect as previously defined.
(§2) In this evaluation, seedlings of the plant species listed below are grown in Metromix® soil in jiffy flats for about two weeks, to the 2-3 leaf growth stage. The test compounds are dispersed in water containing 1.0% Sunit II, a methylated seed oil of Agsco, Inc., and applied to the plants through a spray nozzle operating at 40 psi for a predetermined time so as to obtain a range of application rates of about 3.0 g/ha to 250 g/ha. Each treatment is replicated 3 times. After spraying, the plants are placed on greenhouse benches and are cared for in accordance with conventional greenhouse procedures. Eighteen days after treatment, the seedling plants are examined and the % weed control as compared to the untreated check is recorded.
(§3) For replicated treatments, the data are averaged. The Colby method of analysis is used to determine the resultant biological effect of the combination treatment as compared to the biological effect of each component when applied alone. In Tables I and II, obs designates observed and exp designates expected.

[2] = tested on: PANMI (Millet, wild proso); experiment: as above; type: in vivo, Panicum miliaceum
Procedure: as §1, §2, §3

[3] = tested on: BRAPP (Signalgrass, broadleaf); experiment: as above; type: in vivo, Brachiaria platyphylla
Procedure: as §1, §2, §3

[4] = tested on: ZEAMX (Corn); experiment: Greenhouse postemergence herbicidal evaluation, crop response; type: in vivo, Zea mays
Procedure: as §1, §2, §3

[5] = tested on: ERBVI (Cupgrass, woolly); experiment: Greenhouse postemergence herbicidal evaluation, % weed control; type: in vivo, Eriochloa villosa
Procedure: as §1, §2, §3

[6] = tested on: PANDI (Fall panicum); experiment: as above; type: in vivo, Panicum dichotomiflorum
Procedure: as §1, §2, §3

[7] = tested on: ECHCG (Barnyardgrass); experiment: as above; type: in vivo, Echinochloa crus-galli
Procedure: as §1, §2, §3

[8] = tested on: SORBI (Shattercane); experiment: as above; type: in vivo, Sorghum bicolor
Procedure: as §1, §2, §3

[9] = tested on: SETVI (Foxtail, green); experiment: as above; type: in vivo, Setaria viridis
Procedure: as §1, §2, §3

[10] = tested on: SETFA (Foxtail, giant); experiment: as above; type: in vivo, Setaria faberi
Procedure: as §1, §2, §3

[11] = tested on: CASOB (Sicklepod); experiment: as above; type: in vivo, Senna obtusifolia
Procedure: as §1, §2, §3

[12] = tested on: DIGSA (Crabgrass, large); experiment: as above; type: in vivo, Digitaria sanguinalis
Procedure: as §1, §2, §3

[13] = tested on: SORHA (Johnsongrass); experiment: as above; type: in vivo, Sorghum halepense
Procedure: as §1, §2, §3

Q: What does the source list for Atrazine [reference compound]?
A: % WEED CONTROL AGRRE Obs ([1]; 250 g/ha alone): 45%; % WEED CONTROL PANMI Obs ([2]; 250 g/ha alone): 60%; % WEED CONTROL BRAPP Obs ([3]; 250 g/ha alone): 20%; % crop injury, corn (observed) ([4]; 250 g/ha alone): 0%; % WEED CONTROL ERBVI Obs ([5]; 250 g/ha alone): 10%; % WEED CONTROL PANDI Obs ([6]; 250 g/ha alone): 5%; % WEED CONTROL ECHCG Obs ([7]; 250 g/ha alone): 85%; % WEED CONTROL SORBI Obs ([8]; 250 g/ha alone): 0%; % WEED CONTROL SETVI Obs ([9]; 250 g/ha alone): 90%; % WEED CONTROL SETFA Obs ([10]; 250 g/ha alone): 85%; % WEED CONTROL CASOB Obs ([11]; 250 g/ha alone): 40%; % WEED CONTROL DIGSA Obs ([12]; 250 g/ha alone): 15%; % WEED CONTROL SORHA Obs ([13]; 250 g/ha alone): 0%

Q: Which “% WEED CONTROL AGRRE Obs” value ([1]; 3.00 g/ha alone) does the source give for `CCCS(=O)(=O)Oc1c(C(=O)c2ccc3c(c2C)C(C)(C)CS3(=O)=O)cnn1C` [DHBT IA, 1-propanesulfonic acid ester of 2,3-dihydro-3,3,4-trimethylbenzo [b]thien-5-yl 5-hydroxy-1-methylpyrazol-4-yl ketone S,S-dioxide] here?
A: Its value is 20%.

Q: What about the “% WEED CONTROL AGRRE Obs” value ([1]; 6.00 g/ha alone) of the same compound?
A: Its value is 30%.

Q: What about the “% WEED CONTROL AGRRE Obs” value ([1]; 12.0 g/ha alone) of the same compound?
A: Its value is 35%.

Q: What about the “% WEED CONTROL PANMI Obs” value ([2]; 3.00 g/ha alone) of the same compound?
A: Its value is 40%.

Q: And the “% WEED CONTROL PANMI Obs” value ([2]; 6.00 g/ha alone)?
A: The value was 70%.

Q: And the “% WEED CONTROL PANMI Obs” value ([2]; 12.0 g/ha alone)?
A: The value was 95%.

Q: What about the “% WEED CONTROL BRAPP Obs” value ([3]; 3.00 g/ha alone) of the same compound?
A: Its value is 25%.

Q: And the “% WEED CONTROL BRAPP Obs” value ([3]; 6.00 g/ha alone)?
A: The value was 55%.

Q: And the “% WEED CONTROL BRAPP Obs” value ([3]; 12.0 g/ha alone)?
A: Its value is 100%.

Q: What about the “% crop injury, corn (observed)” value ([4]; 3.00 g/ha alone) of the same compound?
A: Its value is 0%.

Q: And the “% crop injury, corn (observed)” value ([4]; 6.00 g/ha alone)?
A: Its value is 0%.

Q: What about the “% crop injury, corn (observed)” value ([4]; 12.0 g/ha alone) of the same compound?
A: Its value is 0%.

Q: What about the “% WEED CONTROL ERBVI Obs” value ([5]; 3.00 g/ha alone) of the same compound?
A: Its value is 0%.

Q: What about the “% WEED CONTROL ERBVI Obs” value ([5]; 6.00 g/ha alone) of the same compound?
A: Its value is 15%.

Q: And the “% WEED CONTROL ERBVI Obs” value ([5]; 12.0 g/ha alone)?
A: The value was 40%.

Q: And the “% WEED CONTROL PANDI Obs” value ([6]; 3.00 g/ha alone)?
A: Its value is 40%.

Q: And the “% WEED CONTROL PANDI Obs” value ([6]; 6.00 g/ha alone)?
A: Its value is 55%.

Q: And the “% WEED CONTROL PANDI Obs” value ([6]; 12.0 g/ha alone)?
A: Its value is 75%.

Q: What about the “% WEED CONTROL ECHCG Obs” value ([7]; 3.00 g/ha alone) of the same compound?
A: Its value is 45%.

Q: What about the “% WEED CONTROL ECHCG Obs” value ([7]; 6.00 g/ha alone) of the same compound?
A: Its value is 60%.

Q: What about the “% WEED CONTROL ECHCG Obs” value ([7]; 12.0 g/ha alone) of the same compound?
A: The value was 80%.

Q: And the “% WEED CONTROL SORBI Obs” value ([8]; 3.00 g/ha alone)?
A: Its value is 30%.

Q: What about the “% WEED CONTROL SORBI Obs” value ([8]; 6.00 g/ha alone) of the same compound?
A: The value was 35%.

Q: And the “% WEED CONTROL SORBI Obs” value ([8]; 12.0 g/ha alone)?
A: Its value is 60%.

Q: And the “% WEED CONTROL SETVI Obs” value ([9]; 3.00 g/ha alone)?
A: Its value is 35%.

Q: And the “% WEED CONTROL SETVI Obs” value ([9]; 6.00 g/ha alone)?
A: Its value is 100%.

Q: What about the “% WEED CONTROL SETVI Obs” value ([9]; 12.0 g/ha alone) of the same compound?
A: The value was 80%.

Q: And the “% WEED CONTROL SETFA Obs” value ([10]; 3.00 g/ha alone)?
A: The value was 35%.

Q: What about the “% WEED CONTROL SETFA Obs” value ([10]; 6.00 g/ha alone) of the same compound?
A: Its value is 55%.

Q: What about the “% WEED CONTROL SETFA Obs” value ([10]; 12.0 g/ha alone) of the same compound?
A: Its value is 90%.

Q: And the “% WEED CONTROL CASOB Obs” value ([11]; 3.00 g/ha alone)?
A: Its value is 15%.

Q: What about the “% WEED CONTROL CASOB Obs” value ([11]; 6.00 g/ha alone) of the same compound?
A: Its value is 25%.

Q: What about the “% WEED CONTROL CASOB Obs” value ([11]; 12.0 g/ha alone) of the same compound?
A: Its value is 25%.

Q: What about the “% WEED CONTROL DIGSA Obs” value ([12]; 3.00 g/ha alone) of the same compound?
A: The value was 50%.

Q: And the “% WEED CONTROL DIGSA Obs” value ([12]; 6.00 g/ha alone)?
A: Its value is 70%.

Q: And the “% WEED CONTROL DIGSA Obs” value ([12]; 12.0 g/ha alone)?
A: The value was 85%.

Q: And the “% WEED CONTROL SORHA Obs” value ([13]; 3.00 g/ha alone)?
A: The value was 35%.

Q: And the “% WEED CONTROL SORHA Obs” value ([13]; 6.00 g/ha alone)?
A: The value was 40%.

Q: What about the “% WEED CONTROL SORHA Obs” value ([13]; 12.0 g/ha alone) of the same compound?
A: Its value is 65%.
